ChEMBL document CHEMBL1134200, “Pimarane cyclooxygenase 2 (COX-2) inhibitor and its structure-activity relationship” (Bioorg Med Chem Lett, 2001)

Molecular target: T1, Prostaglandin G/H synthase 2 (Ovis aries, UniProt P79208)
T1 sequence (P79208 whole entry): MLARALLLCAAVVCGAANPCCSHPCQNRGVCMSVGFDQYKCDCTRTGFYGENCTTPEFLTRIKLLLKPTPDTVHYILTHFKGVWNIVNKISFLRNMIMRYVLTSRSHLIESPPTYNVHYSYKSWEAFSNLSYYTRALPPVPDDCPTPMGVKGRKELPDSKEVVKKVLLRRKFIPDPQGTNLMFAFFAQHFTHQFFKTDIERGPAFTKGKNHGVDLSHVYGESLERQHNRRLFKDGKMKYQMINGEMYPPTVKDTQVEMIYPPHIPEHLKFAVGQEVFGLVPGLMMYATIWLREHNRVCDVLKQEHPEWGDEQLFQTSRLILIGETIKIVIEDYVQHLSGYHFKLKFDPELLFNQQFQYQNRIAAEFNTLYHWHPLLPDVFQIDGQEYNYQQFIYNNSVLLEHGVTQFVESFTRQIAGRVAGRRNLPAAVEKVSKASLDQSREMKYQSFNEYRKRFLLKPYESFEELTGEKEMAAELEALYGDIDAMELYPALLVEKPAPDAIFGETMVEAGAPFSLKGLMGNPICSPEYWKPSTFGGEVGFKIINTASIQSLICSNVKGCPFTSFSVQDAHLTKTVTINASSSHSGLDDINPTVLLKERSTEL
Experiment: Inhibitory activity against Prostaglandin G/H synthase 2 from sheep placental cotyledons

Structure (SMILES) | IC50 [µM]
C=C[C@@]1(C)CC=C2C(CCC3[C@](C)(CC(=O)O)CCC[C@@]23C)C1 (stereo not given in full) | 82.3
C[C@]1(CCF)CC=C2C(CCC3[C@](C)(C(=O)O)CCC[C@@]23C)C1 (stereo not given in full) | > 1000
C[C@]1(CC(F)F)CC=C2C(CCC3[C@](C)(C(=O)O)CCC[C@@]23C)C1 (stereo not given in full) | 796
C=C[C@@]1(C)CC=C2C(CCC3[C@](C)(CCC/C=C/C(=O)O)CCC[C@@]23C)C1 (stereo not given in full) | 13.2
C=C[C@@]1(C)CC=C2C(CCC3[C@](C)(C(N)=O)CCC[C@@]23C)C1 (stereo not given in full) | > 1000
C=C[C@@]1(C)CC=C2C(CCC3[C@](C)(C(=O)NO)CCC[C@@]23C)C1 (stereo not given in full) | 819
C=C[C@@]1(C)CC=C2C(CCC3[C@](C)(C(=O)OC)CCC[C@@]23C)C1 (stereo not given in full) | > 1000
C[C@]1(CCF)CC=C2C(CCC3[C@](C)(C(=O)F)CCC[C@@]23C)C1 (stereo not given in full) | 194
C[C@]1(CCO)CC=C2C(CCC3[C@](C)(C(=O)O)CCC[C@@]23C)C1 (stereo not given in full) | > 1000
C=C[C@@]1(C)CC=C2C(CCC3[C@](C)(CO)CCC[C@@]23C)C1 (stereo not given in full) [ACANTHOL] | > 1000

Continued, values first:

IC50 [µM] | Structure (SMILES)
> 1000 | COCC[C@@]1(C)CC=C2C(CCC3[C@](C)(C(=O)O)CCC[C@@]23C)C1 (stereo not given in full)
105 | C=C[C@@]1(C)CC=C2C(CCC3[C@](C)(CCC(=O)O)CCC[C@@]23C)C1 (stereo not given in full)
> 1000 | C[C@@]1(C2CO2)CC2CCC3[C@](C)(C(=O)O)CCC[C@@]3(C)[C@@]23O[C@H]3C1 (stereo not given in full)
> 1000 | CC(=O)OCC[C@@]1(C)CC=C2C(CCC3[C@](C)(C(=O)O)CCC[C@@]23C)C1 (stereo not given in full)
425 | CC[C@@]1(C)CC=C2C(CCC3[C@](C)(C(=O)O)CCC[C@@]23C)C1 (stereo not given in full)
